For 5 molecules, IC50 results are on record in patent US20260317335A1, “COMPOUNDS OF FUSED PYRROLE RINGS OR FUSED PYRIDINE RINGS” (PHARMAENGINE, INC., priority 2023, published 2026).

This assay deals with HCC1569 (CCNE1-amplified breast cancer cell line). Description: Cell Proliferation Assay (CellTiter-Glo, 7 days). The format is cell-based. As for the experimental part:
The sensitivity of cancer cell lines with normal or elevated CCNE1 levels to test compounds was evaluated in a cell proliferation assay. Cell lines were maintained in ATCC-recommended culture media supplemented with 10% FBS and 1% penicillin/streptomycin in a humidified 5% CO2 incubator. All test compounds were stored as 20 mM DMSO stock solutions.
On Day 0, CCNE1-wild type (wt) and CCNE1-amplified (amp) cells were seeded into 384-well plates and incubated for 16 to 24 hours in a humidified 5% CO2 incubator. On Day 1, test compounds were dispensed into wells at specified concentrations (n=2), with DMSO volume normalized to the highest concentration. Plates with compound-treated cells were incubated for 7 days in a humidified 5% CO2 incubator.
On Day 7, plates were removed from the incubator and equilibrated to room temperature. Relative inhibition was assessed by adding CellTiter-Glo reagent. Data were plotted as a percentage of the DMSO control for each compound in each cell line. IC50 values were calculated using a four-parameter nonlinear regression model (GraphPad Prism).
A general note: Cellular ATP, detected with luciferase, serves as a proxy for viable cell number.
As a reminder, the IC50 is the point on the concentration scale where inhibition reaches its midpoint. `Cc1ccc2[nH]ncc2c1-n1c(N)c2c3c(c(C)c(C)nc31)C=CNC2=O` [Compound 126]: the IC50 came out at 666 nM.

As for `Cc1cc2c(C(N)=O)c(N)n(-c3c(C)ccc(O)c3C)c2nc1C` [Rp6306, reference compound], the IC50 stood at 18 nM. Against the preceding molecule, the IC50 is about 37-fold lower.

As to `Cc1nc2c3c(c1C)C=CNC(=O)c3c(N)n2-c1c(Cl)cc(F)c2[nH]ncc12` [Compound 136], the IC50 was over 1000 nM.

The molecule `Cc1nc2c3c(c1C)C=CNC(=O)c3c(N)n2-c1c(C)c(F)cc2[nH]ncc12` [Compound 138] registered an IC50 of over 1000 nM.

`Cc1nc2c3c(c1C)C=CNC(=O)c3c(N)n2-c1c(Cl)c(F)cc2[nH]ncc12` [Compound 137] came in with an IC50 of 566 nM.
